The subject of the test is T1, β-glucosidase purified from F. chlamydosporum HML278 (BG FH1 / BG FH2, not told which).
T1 construct: native secreted enzyme from solid-state fermentation; native PAGE recovery and Sephacryl S-200; 93 kDa and 52 kDa (SDS-PAGE), single subunit
Briefly: initial rates, Lineweaver-Burk. The conditions noted are these: pH 4.8, 30 °C; one value given, not told whether BG FH1 or BG FH2. It counts as biochemical, Fusarium chlamydosporum. The text has this: initial rates, Lineweaver-Burk on β-glucosidase purified from F. chlamydosporum HML278 (BG FH1 / BG FH2, not told which) | By using pNPG as a substrate, it was shown that the Km and Vmax values

The structures appear in SMILES notation.

Take `O=[N+]([O-])c1ccc(O[C@@H]2O[C@H](CO)[C@@H](O)[C@H](O)[C@H]2O)cc1` [pNPG]: the Km is 2.76 mg/mL.
